Assay [1] deals with MNK2 (MNK2a or MNK2b) or MNK1. Particulars: cell culture cells transfected with MNK2 (MNK2a or MNK2b) or MNK1; cited from earlier work.
For another assay, the target named is MNK2a (Homo sapiens (Human), UniProt Q9HBH9). The assay can be described thus: MNK2a in vitro kinase assay (Assay 2), ADP-Glo. It is filed as biochemical. Particulars: read-out: MNK2 IC50.
Another assay deals with MNK1 (Homo sapiens (Human), UniProt Q9BUB5). The assay can be described thus: MNK1 in vitro kinase assay (Assay 3), Z'-LYTE. Type of assay: biochemical. The following applies: for inhibition at 1 µM: compound concentration of 1 μM, read-out: MNK1 % INH. The essentials: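 Pre-activated GST-MNK1a phosphorylated a FRET peptide for 60 min at room temperature in HEPES pH 7.5 buffer with Mg2+/Mn2+, EGTA and DTT, with 1% DMSO final. Protease development followed for 60 min.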
MNK1, sequence (Q9BUB5 other isoform, or with tags, fused parts or gaps): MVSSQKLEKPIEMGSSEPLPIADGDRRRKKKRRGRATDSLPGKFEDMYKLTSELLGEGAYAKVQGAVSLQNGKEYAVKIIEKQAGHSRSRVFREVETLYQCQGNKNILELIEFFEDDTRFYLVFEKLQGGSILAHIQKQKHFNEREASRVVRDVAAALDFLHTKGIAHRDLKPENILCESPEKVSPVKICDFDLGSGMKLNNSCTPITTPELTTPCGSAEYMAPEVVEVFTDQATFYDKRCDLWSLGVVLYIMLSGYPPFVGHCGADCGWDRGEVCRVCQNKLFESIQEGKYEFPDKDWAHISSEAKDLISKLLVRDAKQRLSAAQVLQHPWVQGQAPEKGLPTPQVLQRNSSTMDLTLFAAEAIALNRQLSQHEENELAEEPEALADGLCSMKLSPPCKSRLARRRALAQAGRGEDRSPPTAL

Molecules are shown by their SMILES.

MNK2a, sequence (Q9HBH9 whole entry): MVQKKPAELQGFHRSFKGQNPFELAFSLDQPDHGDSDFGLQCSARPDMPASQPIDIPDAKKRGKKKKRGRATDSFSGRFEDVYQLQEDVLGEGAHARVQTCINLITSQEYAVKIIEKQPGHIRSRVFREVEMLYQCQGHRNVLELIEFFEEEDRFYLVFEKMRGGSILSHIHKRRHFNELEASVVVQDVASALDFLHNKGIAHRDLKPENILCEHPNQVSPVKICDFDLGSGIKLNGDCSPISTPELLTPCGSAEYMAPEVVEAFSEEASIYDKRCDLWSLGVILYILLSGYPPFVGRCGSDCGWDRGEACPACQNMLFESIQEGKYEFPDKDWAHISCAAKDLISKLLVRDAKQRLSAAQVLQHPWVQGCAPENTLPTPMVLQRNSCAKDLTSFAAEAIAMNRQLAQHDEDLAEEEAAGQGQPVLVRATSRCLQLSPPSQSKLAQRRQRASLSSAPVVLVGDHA

For `Nc1ncnc2n[nH]c(Nc3ccc(F)cc3)c12` [CGP57380], the “reduction of phosphorylated eIF4E” value in assay [1] is given as “strong reduction of phosphorylated eIF4E”.

`Cc1cc(N=S2(=O)CCCC2)cc2ncnc(Nc3ccc(F)cc3O[C@H](C)C(=O)NCCO)c12` [Example 4.072]: on MNK2a, the 50% inhibitory concentration (IC50) amounted to 3 nM. Also, on MNK1, the inhibition at 1 µM is 98%.

As to `Cc1cc(N=S2(=O)CCCC2)cc2ncnc(Nc3ccc(F)cc3O[C@H](C)C(=O)NCC(F)(F)F)c12` [Example 4.074], the half-maximal inhibitory concentration (IC50) was determined as 1 nM at MNK2a and 38 nM against MNK1.

Take `Cc1cc(N=S2(=O)CCCC2)cc2ncnc(Nc3ccc(F)cc3O[C@H](C)C(=O)N[C@@H]3CCC[C@@H]3O)c12` [Example 4.075]: the IC50 at MNK2a turned out to be 9 nM. Also, at MNK1, the inhibition at 1 µM amounted to 90%.

Turning to `Cc1cc(N=S(C)(C)=O)cc2ncnc(Nc3ccc(Cl)cc3O[C@H](C)C(=O)N[C@@H](C)C(F)(F)F)c12` [Example 4.088], the 50% inhibitory concentration (IC50) on MNK2a amounted to 2 nM. On MNK1, inhibition was half-maximal at 36 nM (IC50) and the inhibition at 1 µM worked out at 99%.

As to `C[C@@H](Oc1cc(F)ccc1Nc1ncnc2cc(N=S3(=O)CCC3)cc(F)c12)C(=O)NCC(F)(F)F` [Example 4.100], the half-maximal inhibitory concentration (IC50) on MNK2a turned out to be 2 nM. Moreover, on MNK1, the half-inhibitory concentration (IC50) came out at 14 nM and the inhibition at 1 µM came to 97%.

As to `Cc1cc(N=S2(=O)CCC2)cc2ncnc(Nc3ccc(F)cc3O[C@H](C)C(=O)N[C@@H](C)C(F)(F)F)c12` [Example 4.104], the IC50 at MNK2a is 1 nM. Besides, on MNK1, the inhibition at 1 µM was found to be 100%.

With `C[C@H](NC(=O)[C@@H](C)Oc1cc(F)ccc1Nc1ncnc2cc(N=S(C)(C)=O)cc(F)c12)C(F)(F)F` [Example 4.118], on MNK2a, the IC50 worked out at 3 nM. Moreover, at MNK1, the 50% inhibitory concentration (IC50) came to 21 nM and the inhibition at 1 µM is 99%.

In the case of `C[C@H](NC(=O)[C@@H](C)Oc1cc(F)ccc1Nc1ncnc2cc(N=S3(=O)CCC3)cc(F)c12)C(F)(F)F` [Example 4.136], at MNK2a, the half-maximal inhibitory concentration (IC50) is 1 nM. Moreover, on MNK1, the IC50 came out at 29 nM and the inhibition at 1 µM was found to be 93%.

For `C[C@@H](Oc1cc(F)ccc1Nc1ncnc2cc(N=S3(=O)CCC3)cc(Cl)c12)C(=O)NCC(F)(F)F` [Example 4.138], the IC50 on MNK2a was 1 nM. At MNK1, inhibition was half-maximal at 27 nM (IC50) and the inhibition at 1 µM is 64%.

For `Cc1cc(N=S(C)(C)=O)cc2ncnc(Nc3ccc(F)cc3O[C@@H](C)CNS(C)(=O)=O)c12` [Example 5.001], the IC50 on MNK2a is 1 nM. The inhibition at 1 µM at MNK1 worked out at 97%.

For the compound `CC(=O)NC[C@H](C)Oc1cc(F)ccc1Nc1ncnc2cc(N=S(C)(C)=O)cc(C)c12` [Example 5.002], the IC50 at MNK2a came to 7 nM. Further, on MNK1, the inhibition at 1 µM is 88%.

For `Cc1cc(N=S(C)(C)=O)cc2ncnc(Nc3ccc(F)cc3O[C@H](C)CNS(C)(=O)=O)c12` [Example 5.003], the IC50 at MNK2a turned out to be 83 nM. On MNK1, the inhibition at 1 µM was 38%.

Consider `Cc1cc(N=S(C)(C)=O)cc2ncnc(Nc3ccc(F)cc3O[C@@H](C)CNC(=O)C(F)(F)F)c12` [Example 5.004], for which the IC50 is 2 nM on MNK2a and 66 nM against MNK1.

Consider `CC(=O)N1CCS(=O)(=Nc2cc(C)c3c(Nc4ccc(F)cc4O[C@H](C)c4cc(C)no4)ncnc3c2)CC1` [Example 5.005], for which the IC50 on MNK2a was 2 nM. Further, the inhibition at 1 µM at MNK1 stood at 95%.

Consider `CCNC(=O)NC[C@@H](C)Oc1cc(F)ccc1Nc1ncnc2cc(N=S(C)(C)=O)cc(C)c12` [Example 5.006], for which the IC50 at MNK2a amounted to 29 nM. For the same compound, on MNK1, the inhibition at 1 µM was 78%.

Turning to `COCC(=O)N1CCS(=O)(=Nc2cc(C)c3c(Nc4ccc(F)cc4O[C@H](C)c4cc(C)no4)ncnc3c2)CC1` [Example 5.007], the half-maximal inhibitory concentration (IC50) on MNK2a was 4 nM. At MNK1, the inhibition at 1 µM was 97%.

As to `CCNC(=O)N1CCS(=O)(=Nc2cc(C)c3c(Nc4ccc(F)cc4O[C@H](C)c4cc(C)no4)ncnc3c2)CC1` [Example 5.008], the IC50 was 2 nM on MNK2a and 39 nM against MNK1.

Take `CC(=O)NC[C@@H](C)Oc1cc(F)ccc1Nc1ncnc2cc(N=S(C)(C)=O)cc(C)c12` [Example 5.009]: the half-inhibitory concentration (IC50) on MNK2a turned out to be 35 nM. Besides, the inhibition at 1 µM on MNK1 amounted to 74%.

For the compound `Cc1cc(N=S(C)(C)=O)cc2ncnc(Nc3ccc(F)cc3O[C@H](C)CNC(=O)C(F)(F)F)c12` [Example 5.010], at MNK2a, the IC50 is 28 nM. Besides, the inhibition at 1 µM at MNK1 is 62%.

`Cc1cc(N=S(C)(C)=O)cc2ncnc(Nc3ccc(F)cc3O[C@H](C)CNS(=O)(=O)C(F)(F)F)c12` [Example 5.011]: at MNK2a, the concentration for half-maximal inhibition (IC50) worked out at 99 nM. Besides, the inhibition at 1 µM on MNK1 was determined as 27%.

In the case of `CCC(=O)NC[C@@H](C)Oc1cc(F)ccc1Nc1ncnc2cc(N=S(C)(C)=O)cc(C)c12` [Example 5.012], the IC50 on MNK2a amounted to 56 nM. Besides, the inhibition at 1 µM on MNK1 worked out at 61%.

As to `Cc1cc([C@@H](C)Oc2cc(F)ccc2Nc2ncnc3cc(N=S4(=O)CCN(C)CC4)cc(C)c23)on1` [Example 7.001], at MNK2a, the IC50 stood at 1 nM. The inhibition at 1 µM on MNK1 came to 98%.

As to `COc1cc(N=S(C)(C)=O)cc2ncnc(Nc3ccc(F)cc3OC(C)c3cc(C)no3)c12` (centres unmarked) [Example 7.003], at MNK2a, the 50% inhibitory concentration (IC50) turned out to be 2 nM. Besides, on MNK1, the inhibition at 1 µM came to 102%.

Consider `Cc1cc(N=S(C)(C)=O)cc2ncnc(Nc3ccc(F)cc3OC(C)C#N)c12` (centres unmarked) [Example 7.005], for which, on MNK2a, the concentration for half-maximal inhibition (IC50) turned out to be 3 nM. Moreover, the inhibition at 1 µM on MNK1 is 93%.

On to `Cc1cc(N=S2(=O)CCCC2)cc2ncnc(Nc3ccc(F)cc3OC(C)C#N)c12` (centres unmarked) [Example 7.008], for which the IC50 on MNK2a worked out at 3 nM. Also, the inhibition at 1 µM at MNK1 worked out at 99%.
